Measured values taken from patent publication US20190151283A1, “NON-STEROIDAL SELECTIVE GLUCOCORTICOID RECEPTOR AGONISTIC MODULATORS (SEGRAMs) AND USES THEREOF” (ASSOCIATION POUR LA RECHERCHE À L'IGBMC (ARI), priority 2017, published 2019).

Legend:
Type in all cases: in vivo, mouse
Male mice (DBA-1 strain) = experiment: Collagen-induced arthritis (CIA); conditions: for hind paw thickness at the ankle level: i.p. 1 mg/kg daily for 10 days (T0 to T10); for RNA transcripts of the pro-inflammatory genes expressed in the hind paws (IL-1β, IL-6, IL-17a, IL-17f, TNFα): q-RT-PCR, T10, 'but not' = not repressed; for hind paw thickness, difference compared to the Dex treatment: student t test, FIG. 17 legend
Protocol: Mice were treated with collagen to induce a Th17 rheumatoid arthritis-like inflammation as described by Inglis et al. (2007. Arthritis Res Ther. 9(5):R113) and Geboes et al. (2009. Arthritis Rheum. 60(2):390-5).
Male mice (DBA-1 strain) were subcutaneously-injected with 100 μg collagen per mouse on D0. The hind paw thickness at the ankle level was regularly measured with a caliper. When the ankle thickness had reached around 4 mm (T0, i.e., 30 to 50 days after the collagen injection on D0), mice were daily intraperitoneally-injected for 10 days (T0 to T10) with either vehicle (NaCl 0.9%), Dex, CpdX, CpdX(eA), CpdX(eB), CpdX-D3, CpdX-D3(eA) or CpdX-D3(eB) (1 mg/kg body weight diluted in NaCl 0.9%), and the hind paw thickness at the ankle level was daily measured with a caliper. Pictures of the hind paws were taken at days T0 and T10 (before and after the treatment with either Vehicle, Dex, CpdX, CpdX(eA), CpdX(eB), CpdX-D3, CpdX-D3(eA) or CpdX-D3(eB)), in order to assess the course of swelling.
RNA transcripts were extracted from whole hind paws of collagen-untreated and collagen-treated mice at T0 and T10. IL-1β, IL-6, IL-17a, IL-17f and TNFα transcripts were analyzed by q-RT-PCR.

B6 male mice [1] = experiment: Bone formation after three-month treatment (micro-CT, WNT16 transcripts); conditions: s.c. 1 mg/kg daily, three months
Protocol: (§1) B6 male mice (8-week-old) were daily subjected for three months to either a subcutaneous injection of vehicle (NaCl 0.9%), Dex, CpdX, CpdX(eA), CpdX(eB), CpdX-D3, CpdX-D3(eA) or CpdX-D3(eB) (1 mg/kg body weight, diluted in NaCl 0.9%).
From each animal included in the experiments, one femur and the ipsilateral tibia were dissected and preserved in 70% ethanol for further bone microstructure analysis by micro-CT. The FX Quantum micro-CT scanner (Perkin Elmer) was used to perform measurements at the distal femur and midshaft tibia. All scans were performed with an isotropic voxel size of 10 μm, 160 μA tube current and 90 kV tube voltage.
Morphological 3D measurements were performed using the CTAn software (Bruker). Cortical bone parameters, which were measured in the tibia midshaft, included measures of the bone volume fraction as compared to the total volume, cortical thickness, total area, bone area and marrow area. The region of interest was selected from below the distal tibial crest and continued for 20 slices toward the proximal end of the tibia. Trabecular bone parameters were measured in the distal metaphysis of the femurs and included bone volume fraction, trabecular thickness, trabecular number and trabecular spacing. The region of interest was selected from below the distal growth plate where the epiphyseal cap structure completely disappeared and continued for 100 slices toward the proximal end of the femur.
The statistical significance as compared to vehicle treatment was calculated through one-way ANOVA test followed by Dunn's multiple comparison test, *p<0.05; **p<0.01; ***p<0.001; ****p<0.0001.

B6 male mice [2] = experiment: Organ weights (thymus, spleen, adrenal gland, kidney) after three-month treatment; conditions: s.c. 1 mg/kg daily, three months
Protocol: as §1, with “to” for “to either”, “of either” for “of”, “vehicle). Following these treatments, four organs (thymus, spleen, adrenal gland and kidney) were harvested and weighted.” for “NaCl 0.9%).”

B6 male mice [3] = experiment: Blood glucose and intraperitoneal glucose tolerance test after three-month treatment; conditions: for control of the blood glucose level: three months, conclusion; for blood glucose level in intraperitoneal glucose tolerance test (IPGTT): two-hour period after glucose i.p. injection (2 mg/kg body weight)
Protocol: B6 male mice (8-week-old) were daily subjected for three months to a subcutaneous injection of either vehicle (NaCl 0.9%), Dex, CpdX, CpdX(eA), CpdX(eB), CpdX-D3, CpdX-D3(eA) or CpdX-D3(eB) (1 mg/kg body weight, diluted in vehicle). Mice were over-night-fasted. Mouse blood glucose concentration was measured before (T0) and during two hours (T120) after glucose i.p. injection ([…] body weight).

B6 male mice [4] = experiment: Insulin level, insulin tolerance test and liver insulin signalling after three-month treatment; conditions: for insulin resistance: three months, conclusion; for phosphorylated insulin receptor substrate 1 (p-IRS1 S318) in liver extracts: western-blot, 'but not' = no decrease
Protocol: B6 male mice (8-week-old) were subjected daily for three months to a subcutaneous injection of either vehicle (NaCl 0.9%), Dex, CpdX, CpdX(eA), CpdX(eB), CpdX-D3, CpdX-D3(eA) or CpdX-D3(eB) (1 mg/kg body weight, diluted in vehicle). After three months, the blood was collected at 10 a.m. by retro-orbital puncture in lithium-heparin coated vials, and the plasmatic level of insulin was determined.
For the intraperitoneal insulin tolerance test (IPITT), mice were fasted for 6 hours before test. The blood glucose concentration was measured both before (T0) and during a one-hour period after insulin i.p. injection (0.75 U/kg body weight).
Following this three-month treatment, liver samples were harvested and lysed in the RIPA buffer (20 mM Tris pH 8, 150 mM NaCl, 10% glycerol, 1% NP-40 and 2 mM EDTA). Antibodies from Cell Signaling were used to assess by Western-Blotting the relative level of p-IRS1 (S318), IRS-1, p-AKT (S473) and AKT.

B6 male mice [5] = experiment: Fatty liver after three-month treatment; conditions: three months; for transcripts of fatty acid synthase (FASN) and Stearoyl-CoA desaturase 1 (SCD1) in liver: q-RT-PCR, 'but not' = no increase; for blood cholesterol and bile acids' levels: 'but not' = no clear increase; for lipid deposition in the liver: 5% Red oil staining of frozen sections
Protocol: B6 male mice (8-week-old) were daily subjected for three months to a subcutaneous injection of either vehicle (NaCl 0.9%), Dex, CpdX, CpdX(eA), CpdX(eB), CpdX-D3, CpdX-D3(eA) or CpdX-D3(eB) (1 mg/kg body weight, diluted in vehicle). Following this treatment, blood was collected at 10 a.m. by retro-orbital puncture in lithium-heparin coated vials. The plasmatic levels of total cholesterol and bile acids were determined.
Liver samples were harvested. […] RNA transcripts were extracted from liver samples and the transcripts of fatty acid synthase (FASN) and Stearoyl-CoA desaturase 1 (SCD1) genes were analyzed by q-RT-PCR.

| Structure (SMILES) | hind paw thickness at the ankle level (Male mice (DBA-1 strain); 1 mg/kg) | bone formation in cortical and trabecular bones (B6 male mice [1]) | spleen weight (B6 male mice [2]) | thymus apoptosis / thymus found (B6 male mice [2]) | weight of the adrenal gland (B6 male mice [2]) | control of the blood glucose level (B6 male mice [3]) | blood glucose level in intraperitoneal glucose tolerance test (IPGTT) (B6 male mice [3]) | insulin resistance (B6 male mice [4]) | transcripts of fatty acid synthase (FASN) and Stearoyl-CoA desaturase 1 (SCD1) in liver (B6 male mice [5]) | blood cholesterol and bile acids' levels (B6 male mice [5]) | RNA transcripts of the pro-inflammatory genes expressed in the hind paws (IL-1β, IL-6, IL-17a, IL-17f, TNFα) (Male mice (DBA-1 strain)) | hind paw thickness at the ankle level (Male mice (DBA-1 strain)) | hind paw thickness, difference compared to the Dex treatment (Male mice (DBA-1 strain)) | phosphorylated insulin receptor substrate 1 (p-IRS1 S318) in liver extracts (B6 male mice [4]) | lipid deposition in the liver (B6 male mice [5]) |
| --- | --- | --- | --- | --- | --- | --- | --- | --- | --- | --- | --- | --- | --- | --- | --- |
| COc1ccc(F)cc1C(C)(C)CC(O)(CNc1ccc2c(c1)COC2=O)C(F)(F)F (single isomer, unassigned) [CpdX(eB), 5-[4-(5-fluoro-2-methoxyphenyl)-2-hydroxy-4-methyl-2-(trifluoromethyl)pentylamino]-isobenzofuran-1(3H)-one] | no such decrease | did not affect | not decreased | did not result in any significant thymus apoptosis | increased | does not significantly affect | no significant difference | does not induce | but not | but not | – | – | – | – | – |
| [2H]C([2H])([2H])Oc1ccc(F)cc1C(C)(C)CC(O)(CNc1ccc2c(c1)COC2=O)C(F)(F)F (centres unmarked) [CpdX-D3(eB), 5-{4-[2-(methoxy-D3)-5-fluorophenyl]-2-hydroxy-4-methyl-2-(trifluoromethyl)pentylamino}isobenzofuran-1(3H)-one] | no such decrease | did not affect | not decreased | did not result in any significant thymus apoptosis | increased | does not significantly affect | no significant difference | does not induce | but not | but not | – | – | – | – | – |
| [2H]C([2H])([2H])Oc1ccc(F)cc1C(C)(C)CC(O)(CNc1ccc2c(c1)COC2=O)C(F)(F)F (centres unmarked) [CpdX-D3(eA), 5-{4-[2-(methoxy-D3)-5-fluorophenyl]-2-hydroxy-4-methyl-2-(trifluoromethyl)pentylamino}isobenzofuran-1(3H)-one] | – | did not affect | not decreased | did not result in any significant thymus apoptosis | increased | does not significantly affect | no significant difference | does not induce | but not | but not | similarly repressed | – | – | – | – |
| [2H]C([2H])([2H])Oc1ccc(F)cc1C(C)(C)CC(O)(CNc1ccc2c(c1)COC2=O)C(F)(F)F (racemic) [CpdX-D3, 5-{4-[2-(methoxy-D3)-5-fluorophenyl]-2-hydroxy-4-methyl-2-(trifluoro-methyl)pentylamino}isobenzofuran-1(3H)-one] | – | did not affect | not decreased | did not result in any significant thymus apoptosis | increased | does not significantly affect | no significant difference | does not induce | but not | but not | similarly repressed | rapid decrease | not significant | but not | not observed |
| COc1ccc(F)cc1C(C)(C)CC(O)(CNc1ccc2c(c1)COC2=O)C(F)(F)F (single isomer, unassigned) [CpdX(eA), 5-[4-(5-fluoro-2-methoxyphenyl)-2-hydroxy-4-methyl-2-(trifluoromethyl)pentylamino]-isobenzofuran-1(3H)-one] | – | did not affect | not decreased | did not result in any significant thymus apoptosis | increased | does not significantly affect | no significant difference | does not induce | but not | but not | similarly repressed | – | – | – | – |
| COc1ccc(F)cc1C(C)(C)CC(O)(CNc1ccc2c(c1)COC2=O)C(F)(F)F (racemic) [CpdX, 5-[4-(5-fluoro-2-methoxyphenyl)-2-hydroxy-4-methyl-2-(trifluoromethyl)pentylamino]-isobenzofuran-1(3H)-one] | – | did not affect | not decreased | did not result in any significant thymus apoptosis | increased | does not significantly affect | no significant difference | does not induce | but not | but not | similarly repressed | rapid decrease | not significant | but not | not observed |
